The target in the first assay is T1, FYN (Homo sapiens, UniProt P06241).
T1 construct: purchased CarnaBioscience
T1 sequence (P06241 whole entry): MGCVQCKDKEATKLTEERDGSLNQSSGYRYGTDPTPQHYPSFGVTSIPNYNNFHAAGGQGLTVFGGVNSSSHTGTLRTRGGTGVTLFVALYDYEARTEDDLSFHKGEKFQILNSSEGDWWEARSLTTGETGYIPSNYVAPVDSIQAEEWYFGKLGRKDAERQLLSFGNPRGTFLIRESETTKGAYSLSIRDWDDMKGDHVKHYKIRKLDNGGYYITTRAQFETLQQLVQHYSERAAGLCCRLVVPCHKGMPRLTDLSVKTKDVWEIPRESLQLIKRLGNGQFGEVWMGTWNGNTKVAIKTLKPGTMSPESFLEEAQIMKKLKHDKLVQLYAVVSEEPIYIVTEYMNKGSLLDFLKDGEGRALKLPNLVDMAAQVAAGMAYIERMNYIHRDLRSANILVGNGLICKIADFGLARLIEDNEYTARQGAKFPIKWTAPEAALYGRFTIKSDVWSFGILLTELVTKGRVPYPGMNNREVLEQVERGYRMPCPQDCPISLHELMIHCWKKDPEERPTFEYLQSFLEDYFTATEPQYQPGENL
Nature of the assay: Z'-LYTE in vitro kinase assay, FYN kinase inhibition. In kind it is biochemical. The settings on record: Table 17. The method, then: Assays to determine the kinase inhibitory activity of compounds were performed using an automatic liquid handling device (Microlab STAR Hamilton) and Z′-LYTE™ Kinase Assay Platform (Invitrogen), a Fluorescence Resonance Energy Transfer (FRET)-based assay platform compatible with high-throughput screening (HTS) applications. The assay employs a fluorescence-based, coupled-enzyme format and utilizes the differential sensitivity of phosphorylated and non-phosphorylated peptides to proteolytic cleavage.
Test compounds were evaluated towards active FYN (CarnaBioscience). The enzyme was incubated in a 384 low-volume microplate with a synthetic peptide-substrate, ATP and different inhibitor concentrations, ranging from 10^−10 M up to 10^−5 M final concentration. Samples representing the 0% inhibition (or total enzymatic activity) were in the presence of compound diluent (1% DMSO final) in Reaction Buffer (50 mM Hepes, 10 mM MgCl2, 1 mM EGTA, 0.01% Brij-35, pH 7.5).
A near-Km ATP concentrations for the kinase and an optimal enzyme concentration that phosphorylates 20-40% of the Z′-LYTE™ Tyr 2 Peptide in a one-hour incubation, were selected. All reagents were diluted in reaction buffer and the kinase reaction was carried out in a total volume of 10 μl, for 60 minutes at 25° C. The 0% Phosphorylation (i.e. no ATP) and 100% Phosphorylation (i.e. synthetically phosphorylated peptide supplied) Assay Controls, included in each plate, allowed to calculate the percent phosphorylation achieved in the specific reaction well. The 0% Inhibition and 0% Phosphorylation (i.e. 100% Inhibition) Controls define the dynamic range in the screen. At the end of incubation, a secondary reaction (the Development Reaction) started by adding 5 μl of Development Reagent, containing a site-specific protease that recognizes and cleaves non-phosphorylated peptides, and was interrupted after 60 minutes with 5 μl/sample of Stop Reagent. Measurement of the Coumarin (Ex. 400 nm, Em. 460 nm) and Fluorescein (Ex. 400 nm, Em. 535 nm) emission signals were performed by a fluorescence plate reader (Envision, PerkinElmer).
Results are expressed as percentage of inhibition and the IC50 values were calculated by non-linear curve fitting using GraphPad™ Prism software.
As for `Cc1cccc(F)c1Nc1ccc2c(NC(=O)c3ccc(C4CCN(C)CC4)cc3)n[nH]c2c1` [Compound 11, N-(6-((2-fluoro-6-methylphenyl)amino)-1H-indazol-3-yl)-4-(1-methylpiperidin-4-yl)benzamide], the “FYN kinase inhibition, result in words” value is “more active”.
Take `CN1CCC(c2ccc(C(=O)Nc3n[nH]c4cc(Nc5c(F)ccc6c5OCO6)ccc34)cc2)CC1` [Compound 15, N-(6-((5-fluorobenzo[d][1,3]dioxol-4-yl)amino)-1H-indazol-3-yl)-4-(1-methylpiperidin-4-yl)benzamide]: the “FYN kinase inhibition, result in words” value is reported as “more active”.

The same assay, now with this note: near-Km ATP, 60 minutes at 25° C.
In the case of `CN1CC[C@@H](c2ccc(C(=O)Nc3n[nH]c4cc(Nc5ccccc5F)ccc34)cc2)[C@@H](F)C1` (single isomer, unassigned) [Compound 3], the IC50 (usually the concentration at which inhibition is half-maximal) was 307 nM.
In turn, `CN1CC[C@@H](c2ccc(C(=O)Nc3n[nH]c4cc(Nc5ccccc5F)ccc34)cc2)[C@@H](F)C1` (single isomer, unassigned) [Compound 4] registered an IC50 of 203 nM. Against the preceding compound, the IC50 is about 1.5-fold lower.
Turning to `CN1CCCC(Oc2ccc(C(=O)Nc3n[nH]c4cc(Nc5ccccc5F)ccc34)cc2)C1` (single isomer, unassigned) [Compound 40], the IC50 was 548 nM. This IC50 lies about 2.7-fold higher than the previous one.
In turn, `CN1CCCC(Oc2ccc(C(=O)Nc3n[nH]c4cc(Nc5ccccc5F)ccc34)cc2)C1` (single isomer, unassigned) [Compound 41] registered an IC50 of 374 nM.
In turn, `CCc1cccc(F)c1Nc1ccc2c(NC(=O)c3ccc(C4CCN(C)CC4)cc3)n[nH]c2c1` [Compound 2, N-(6-((2-ethyl-6-fluorophenyl)amino)-1H-indazol-3-yl)-4-(1-methylpiperidin-4-yl)benzamide] returned an IC50 of 315 nM.
With `O=C(Nc1n[nH]c2cc(Nc3ccccc3F)ccc12)c1ccc(C2CCN(C3COC3)CC2)cc1` [Compound 7, N-(6-((2-fluorophenyl)amino)-1H-indazol-3-yl)-4-(1-(oxetan-3-yl)piperidin-4-yl)benzamide], half-maximal inhibition (IC50) required 468 nM.
On the same count and under the same terms, the same measure for `CN1CCC(c2ccc(C(=O)Nc3n[nH]c4cc(Nc5ccc(F)cc5Cl)ccc34)cc2)CC1` [Compound 9, N-(6-((2-chloro-4-fluorophenyl)amino)-1H-indazol-3-yl)-4-(1-methylpiperidin-4-yl)benzamide]: 388 nM; for `CN1CCC(c2ccc(C(=O)Nc3n[nH]c4cc(Nc5ccccc5C(F)(F)F)ccc34)cc2)CC1` [Compound 10, 4-(1-methylpiperidin-4-yl)-N-(6-((2-(trifluoromethyl)phenyl)amino)-1H-indazol-3-yl)benzamide]: 650 nM.
Same read-out and setting: the same measure for `Cc1cccc(F)c1Nc1ccc2c(NC(=O)c3ccc(C4CCN(C)CC4)cc3)n[nH]c2c1` [Compound 11, N-(6-((2-fluoro-6-methylphenyl)amino)-1H-indazol-3-yl)-4-(1-methylpiperidin-4-yl)benzamide]: 47 nM.
Same read-out and setting: the same measure for `CN1CCC(c2ccc(C(=O)Nc3n[nH]c4cc(Nc5ccc(Cl)cc5F)ccc34)cc2)CC1` [Compound 12, N-(6-((4-chloro-2-fluorophenyl)amino)-1H-indazol-3-yl)-4-(1-methylpiperidin-4-yl)benzamide]: 220 nM.
As for `Cc1cccc(Cl)c1Nc1ccc2c(NC(=O)c3ccc(C4CCN(C)CC4)cc3)n[nH]c2c1` [Compound 13, N-(6-((2-choro-6-methylphenyl)amino)-1H-indazol-3-yl)-4-(1-methylpiperidin-4-yl)benzamide], 207 nM corresponded to half-maximal inhibition (IC50).
In the case of `CN1CCC(c2ccc(C(=O)Nc3n[nH]c4cc(Nc5c(F)ccc6c5OCO6)ccc34)cc2)CC1` [Compound 15, N-(6-((5-fluorobenzo[d][1,3]dioxol-4-yl)amino)-1H-indazol-3-yl)-4-(1-methylpiperidin-4-yl)benzamide], half-maximal inhibition (IC50) was put at 19 nM.
Compound `CN1CCC(c2ccc(C(=O)Nc3n[nH]c4cc(Nc5ccc(F)cc5F)ccc34)cc2)CC1` [Compound 16, N-(6-((2,4-difluorophenyl)amino)-1H-indazol-3-yl)-4-(1-methylpiperidin-4-yl)benzamide] displayed an IC50 of 97 nM. Compared with the last compound, the IC50 is about 5.1-fold higher.
For `Cc1ccc(Nc2ccc3c(NC(=O)c4ccc(C5CCN(C)CC5)cc4)n[nH]c3c2)cc1` [Compound 18, 4-(1-methylpiperidin-4-yl)-N-(6-(p-tolyamino)-1H-indazol-3-yl)benzamide], the IC50 came to 105 nM.
On to `CN1CCC(c2ccc(C(=O)Nc3n[nH]c4cc(Nc5cccc(F)c5)ccc34)cc2)CC1` [Compound 19, N-(6-((3-fluorophenyl)amino)-1H-indazol-3-yl)-4-(1-methylpiperidin-4-yl)benzamide], for which the IC50 was determined as 258 nM.
Still for that read-out and setting: the same measure for `Cc1cccc(F)c1Nc1ccc2c(NC(=O)c3ccc(C4CCN(C)CC4)cc3)n[nH]c2n1` [Compound 21, N-(6-((2-fluoro-6-methylphenyl)amino)-1H-pyrazolo[3,4-b]pyridin-3-yl)-4-(1-methylpiperidin-4-yl)benzamide]: 442 nM; for `CN1CCC(c2ccc(C(=O)Nc3n[nH]c4nc(Nc5ccc(F)cc5F)ccc34)cc2)CC1` [Compound 22, N-(6-((2,4-difluorophenyl)amino)-1H-pyrazolo[3,4-b]pyridin-3-yl)-4-(1-methylpiperidin-4-yl)benzamide]: 283 nM; for `CC(C)N1CCC(c2ccc(C(=O)Nc3n[nH]c4nc(Nc5ccccc5F)ccc34)cc2)CC1` [Compound 24, N-(6-((2-fluorophenyl)amino)-1H-pyrazolo[3,4-b]pyridin-3-yl)-4-(1-isopropylpiperidin-4-yl)benzamide]: 209 nM.
`CN1CCC(c2ccc(C(=O)Nc3n[nH]c4nc(Nc5ccccc5Cl)ccc34)cc2)CC1` [Compound 26, N-(6-((2-chlorophenyl)amino)-1H-pyrazolo[3,4-b]pyridin-3-yl)-4-(1-methylpiperidin-4-yl)benzamide] returned an IC50 of 260 nM.
Same read-out and setting: the same measure for `COc1ccccc1Nc1ccc2c(NC(=O)c3ccc(C4CCN(C)CC4)cc3)n[nH]c2n1` [Compound 27, N-(6-((2-methoxyphenyl)amino)-1H-pyrazolo[3,4-b]pyridin-3-yl)-4-(1-methylpiperidin-4-yl)benzamide]: 538 nM; for `COc1ccc(Nc2ccc3c(NC(=O)c4ccc(C5CCN(C)CC5)cc4)n[nH]c3n2)cc1` [Compound 31, N-(6-((4-methoxyphenyl)amino)-1H-pyrazolo[3,4-b]pyridin-3-yl)-4-(1-methylpiperidin-4-yl)benzamide]: 589 nM; for `CN1CCN(c2ccc(C(=O)Nc3n[nH]c4cc(Nc5ccccc5F)ccc34)cc2)CC1` [Compound 34, N-(6-((2-fluorophenyl)amino)-1H-indazol-3-yl)-4-(4-methylpiperazin-1-yl)benzamide]: 147 nM.
The compound `CN1CCC(Oc2ccc(C(=O)Nc3n[nH]c4cc(Nc5ccccc5F)ccc34)cc2)CC1` [Compound 35, N-(6((2-fluorophenyl)amino)-1H-indazol-3-yl)-4((1-methylpiperidin-4-yl)oxy)benzamide] came in with an IC50 of 145 nM.
`O=C(Nc1n[nH]c2cc(Nc3ccccc3F)ccc12)c1ccc(N2CCOCC2)cc1` [Compound 36, N-(6((2-fluorophenyl)amino)-1H-indazol-3-yl)-4-morpholinobenzamide] gave an IC50 of 370 nM.
`CN1CCCC(Oc2ccc(C(=O)Nc3n[nH]c4cc(Nc5ccccc5F)ccc34)cc2)C1` (stereo not drawn) [Compound 38, N-(6((2-fluorophenyl)amino)-1H-indazol-3-yl)-4((1-methylpiperidin-3-yl)oxy)benzamide] gave an IC50 of 283 nM. This IC50 and that of the compound before are within 1.5-fold of each other.
On the same count and under the same terms, the same measure for `CN1CCC(c2ccc(C(=O)Nc3n[nH]c4cc(Nc5ccccc5F)ccc34)cc2OCC2COC2)CC1` [Compound 42, N-(6-((2-fluorophenyl)amino)-1H-indazol-3-yl)-4-(1-methylpiperidin-4-yl)-3-(oxetan-3-ylmethoxy)benzamide]: 204 nM; for `CN1CCC(c2ccc(C(=O)Nc3n[nH]c4nc(Nc5c(F)ccc6c5OCO6)ccc34)cc2)CC1` [Compound 49, N-(6((5-fluorobenzo[d][1,3]dioxol-4-yl)amino)-1H-pyrazolo[3,4-b]pyridin-3-yl)-4-(1-methylpiperidin-4-yl)benzamide]: 831 nM; for `CN1CCC(c2ccc(C(=O)Nc3n[nH]c4cc(Nc5ccccc5F)ccc34)c(NC3CCOCC3)c2)CC1` [Compound 53, N-(6-((2-fluorophenyl)amino)-1H-indazol-3-yl)-4-(1-methylpiperidin-4-yl)-2-((tetrahydro-2H-pyran-4-yl)amino)benzamide]: 201 nM.
